Laboratory results published in patent US9034814B2, “CXCR4 antagonists for wound healing and re-epithelialization” (Hadasit Medical Research Services and Development Ltd., priority 2005, dated 2015).
Entries after “also recorded” stand apart in the source; their conditions may differ. Bridge positions count the residues as written; N and C are the ends. Square brackets hold non-standard residues; d marks the D form. * marks the point of attachment. 2Nal = N[C@@H](Cc1ccc2ccccc2c1)C(=O)O; Benzoyl(4-F) = O=C(c1ccc(F)cc1)*; Cit = NC(=O)NCCC[C@H](N)C(=O)O

How the values were obtained:
[1] = test system: partial thickness burns in a rat model; experiment: Rat partial thickness burn wound healing, histological evaluation; assay type: in vivo
Excerpt: In order to examine the different phases in burn wound healing and the involvement of the chemokine CXCL12 and the receptor CXCR4, the following experiments were done. Wistar female rats were anesthetized and their back was shaved. 1 cm^2 burns were inflicted with a metal rod that has been immersed in a hot boiling water bath and laid on the posterior part of the hip and back for 2-3 seconds. All experiments were approved by the Animal care committee of the Medical Center, Tel-Aviv and the Hebrew University. Heterozygous mice bearing a GFP reporter knocked-in allele to the CX3CR1 locus (Qu et al. 2004) were maintained at the Weizmann Institute of Science Animal Facility, and burns were inflicted as described above. Each group of 3 animals was injected subcutaneously to the burned area with PBS. Animals were sacrificed at the indicated times after burn infliction: 0, 6 hr, 1 day, 3 days, 5 days and 7 days. Histopathological diagnosis was confirmed for each specimen. Histological sections were prepared from formalin-fixed, paraffin-embedded tissues stained with Hematoxylin and Eosin. Evaluation to the level of epithelialization and white blood cells (WBC) in the epidermis and dermis was made to each section by a scale from 1-5. The sections were scored by two independent pathologists.
In other experiments, treated rats were injected subcutaneously to the burned area with one of the following: PBS, mAb against Rat CXCR4 (12G5 clone, R&D Systems Inc., Minneapolis, Minn.), or the small peptide CXCR4 inhibitor 4F-benzoyl-TN14003 (4F-benzoyl-Aig-Arg-Nal-Cys-Tyr-Cit-Lys-DLys-Pro-Tyr-Arg-Cit-Cys-Arg-NH2, SEQ ID NO:52; Tamamura et al., 2003). All animals were sacrificed 120 hr after injury. Histopathological diagnosis was confirmed for each specimen. Histological sections were prepared from formalin-fixed, paraffin-embedded tissues stained with Hematoxylin and Eosin. Evaluation to the level of epithelialization and white blood cells (WBC) in the dermis was made to each section by a scale from 1-5. The grading scale was as follows: 0=No inflammation or epithelialization; 1=Low inflammation or epithelialization; 2=Low to moderate inflammation or epithelialization; 3 Moderate inflammation or epithelialization; 4=High inflammation or epithelialization; 5=Very high inflammation or epithelialization. Each section was evaluated by two independent pathologists.
Next, the inhibitory effect of CXCR4 antagonists on burn wound healing was examined (FIG. 9). Inhibitors were injected subcutaneously to the burned area at 0, 1 day, and 3 days (20 μg per injection), and animals were sacrificed 5 days post burn. […] A small but not significant decrease in the PMN population in the dermis was observed (FIG. 10). […]

CXCR4 = molecular target: T1, CXCR4 (Rattus norvegicus, UniProt O08565); experiment: Transwell migration of rat lymphocytes in response to CXCL12; assay type: cell-based; settings: CXCL12 100 ng/ml; antibody against CXCR4 10 μg/ml; FIG. 8
T1 construct: endogenous in cells; host or cells: rat peripheral blood mononuclear cells / lymphocytes (Ficoll-Histopaque isolated)
T1 sequence (O08565 whole entry): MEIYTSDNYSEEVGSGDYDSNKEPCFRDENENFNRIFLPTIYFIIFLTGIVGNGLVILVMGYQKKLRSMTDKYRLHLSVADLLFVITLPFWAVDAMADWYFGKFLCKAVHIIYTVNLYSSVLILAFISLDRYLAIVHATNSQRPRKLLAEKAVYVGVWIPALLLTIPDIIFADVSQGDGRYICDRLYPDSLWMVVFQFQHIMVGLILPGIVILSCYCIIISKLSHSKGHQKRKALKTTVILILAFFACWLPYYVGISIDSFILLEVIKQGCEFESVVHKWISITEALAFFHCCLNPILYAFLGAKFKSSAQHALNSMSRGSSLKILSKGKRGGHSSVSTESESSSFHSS
Method: Rat peripheral blood cells were loaded on Ficoll-Histopaque gradient (Histopaque-1077-1, Sigma) and the peripheral blood mononuclear cells (PBMC) were isolated. Rat PBMC migration was assessed in 24-well chemotaxis chambers (6.5-mm diameter, 5-μm pore polycarbonate transwell culture insert; Costar, Cambridge, Mass.). 600 μl RPMI 1640 with 1% BSA (migration buffer) with or without 100 ng/ml of CXCL12α (Peprotech) were added to the lower wells, and 2×10^5 cells suspended in 100 μl of RPMI 1640 with 1% BSA were added to the upper wells. After three hours of incubation, the membrane was removed and migrating cells were counted for 1 min using fluorescence activated cell sorting (FACS).
In order to evaluate the effect of the CXCR4 antagonist 4F-benzoyl-TN14003 and neutralizing antibodies to the receptor on the recovery of rat skin, the inventors first tested their ability to inhibit the migration of rat lymphocytes in response to CXCL12. Migration assay was carried out on total rat lymphocytes separated by Ficoll gradient and their migrating ability to medium containing CXCL12 was examined. Lymphocytes were incubated with the CXCR4 antagonist 4F-benzoyl-TN14003, or an antibody against CXCR4 (10 μg/ml).

[2] = rat burn, 20 μg per injection s.c. at 0, 1 day, 3 days, 5 days post burn, FIG. 11

effect on the migration of rat lymphocytes in response to CXCL12 (CXCR4): strong inhibitory effect
Substance: 4F-benzoyl-Arg-Arg-Nal-Cys-Tyr-Cit-Lys-DLys-Pro-Tyr-Arg-Cit-Cys-Arg-NH2 ({Benzoyl(4-F)}-RR[2Nal]CY[Cit]K[dK]PYR[Cit]CR-NH2; disulfide 4-13 (inferred)) [4F-benzoyl-TN14003]
accumulation of PMN cell population in the epidermis [1, 2]: not affected
eosinophil accumulation in the dermis [1, 2]: reduced eosinophilia; also recorded: strong and significant inhibition
epithelialization ([1]; rat burn, 20 μg per injection subcutaneously to the burned area at 0, 1 day, 3 days, sacrificed 5 days post burn, FIG. 9): improved epithelialization; also recorded: increased epithelialization
potency in improving wound healing in vivo, peptide antagonist versus neutralizing mAb ([1]; rat partial thickness burns): more potent than the neutralizing mAb
